`COc1ccc(N(Cc2ccc(=O)[nH]c2)c2ccc(C(=O)O)cc2)cc1OC1CCCC1` [Compound 29] showed a melting point of 143.7 to 145.9 °C.
Molecule `COc1ccc(N(Cc2cncs2)c2cccc(C(=O)O)c2)cc1OC1CCCC1` [Compound 35] has a melting point of 65.6 to 70.6 °C.
In the case of `COc1ccc(N(Cc2cn[nH]c2)c2ccc(C(=O)O)cc2)cc1OC1CCCC1` [Compound 39], the melting point is reported as 108.9 to 112.3 °C.
With `COc1ccc(N(Cc2cncs2)c2ccc(C(=O)O)cc2)cc1OC1CCCC1` [Compound 40] the melting point was 88 to 90.3 °C.
`COc1ccc(N(Cc2cncnc2)c2ccc(C(=O)O)cc2)cc1OC1CCCC1` [Compound 43] gave a melting point of 156.6 to 159.8 °C.
In the case of `COc1ccc(N(Cc2cscn2)c2cccc(C(=O)O)c2)cc1OC1CCCC1` [Compound 45], the melting point is reported as 75.5 to 77.7 °C.
For `COc1ccc(N(Cc2cccnn2)c2cccc(C(=O)O)c2)cc1OC1CCCC1` [Compound 48], the melting point was 178.9 to 184.3 °C.
With `COc1ccc(N(CC2CCNCC2)c2cccc(C(=O)O)c2)cc1OC1CCCC1` [Compound 50] the melting point was 228.8 to 232.1 °C.
Work on `COc1ccc(N(Cc2cnc(N(C)C)nc2)c2ccc(C(=O)O)cc2)cc1OC1CCCC1` [Compound 51] yielded a melting point of 95.9 to 99.5 °C.
With `COc1ccc(N(Cc2cnc(N(C)C)nc2)c2cccc(C(=O)O)c2)cc1OC1CCCC1` [Compound 52] the melting point was 82 to 84.7 °C.
For `O=C(O)c1ccc(N(Cc2cncs2)c2ccc(OC(F)F)c(OC(F)F)c2)cc1` [Compound 59], the melting point was 144.3 to 145.7 °C.
With `O=C(O)Cc1ccc(N(Cc2cccnc2)c2ccc(OC(F)F)c(OC(F)F)c2)cc1` [Compound 69] the melting point was 107.4 to 108.1 °C.
`COc1ccc(N(Cc2cncs2)c2cccc(C(=O)O)c2)cc1O[C@@H]1CCOC1` [Compound 70] gave a melting point of 60.3 to 61.9 °C.
`COc1ccc(N(Cc2cncs2)c2ccc(C(=O)O)cc2)cc1O[C@@H]1CCOC1` [Compound 71] showed a melting point of 60.3 to 60.8 °C.
For `COc1ccc(N(Cc2cncs2)c2ccc(C(=O)O)cc2)cc1OCC1CC1` [Compound 72], the melting point was 128.7 to 129.4 °C.
For `COc1ccc(N(Cc2cncs2)c2cccc(C(=O)O)c2)cc1OCC1CC1` [Compound 73], the melting point was 137.4 to 139.4 °C.
For `O=C(O)c1ccc(N(Cc2cccnn2)c2ccc(OC(F)F)c(OC(F)F)c2)cc1` [Compound 74], the melting point was 162.6 to 164.8 °C.
Molecule `O=C(O)c1ccc(N(Cc2cncnc2)c2ccc(OC(F)F)c(OC(F)F)c2)cc1` [Compound 80] has a melting point of 186.7 to 187.4 °C.
`CCOc1cc(N(Cc2cncs2)c2ccc(C(=O)O)cc2)ccc1OC(F)F` [Compound 99] showed a melting point of 67 to 69.3 °C.
Work on `O=C(O)c1ccc(N(Cc2cncs2)c2ccc(OC(F)F)c(OC3CCCC3)c2)cc1` [Compound 104] yielded a melting point of 67.3 to 69.7 °C.
With `CC(C)Oc1cc(N(Cc2cncs2)c2ccc(C(=O)O)cc2)ccc1OC(F)F` [Compound 106] the melting point was 158 to 158.5 °C.
Molecule `CC(C)Oc1cc(N(Cc2cccnc2)c2ccc(C(=O)O)cc2)ccc1OC(F)F` [Compound 107] has a melting point of 66.5 to 67.9 °C.
`CC(C)Oc1cc(N(Cc2cccnc2)c2cccc(C(=O)O)c2)ccc1OC(F)F` [Compound 108] showed a melting point of 57.3 to 58.9 °C.
`CC(C)Oc1cc(N(Cc2cncs2)c2cccc(C(=O)O)c2)ccc1OC(F)F` [Compound 109] gave a melting point of 58.6 to 60 °C.
Work on `O=C(O)c1cccc(N(Cc2cncs2)c2ccc(OC(F)F)c(OC3CCCC3)c2)c1` [Compound 110] yielded a melting point of 56.3 to 58 °C.
Molecule `COc1cc(N(Cc2cncs2)c2ccc(C(=O)O)cc2)ccc1OC(F)F` [Compound 120] has a melting point of 164.9 to 165.3 °C.
`COc1cc(N(Cc2cccnc2)c2ccc(C(=O)O)cc2)ccc1OC(F)F` [Compound 124] gave a melting point of 182.4 to 183.4 °C.
For `CCCCOc1cc(N(Cc2cccnc2)c2ccc(C(=O)O)cc2)ccc1OC(F)F` [Compound 128], the melting point was 133.7 to 135.1 °C.
`CCCCOc1cc(N(Cc2cncs2)c2ccc(C(=O)O)cc2)ccc1OC(F)F` [Compound 129] gave a melting point of 158.7 to 159.5 °C.
`CCOc1cc(N(Cc2cncs2)c2ccc(C(=O)O)cc2)ccc1OC` [Compound 130] gave a melting point of 73.1 to 74.5 °C.
For `COc1ccc(N(Cc2cncs2)c2ccc(C(=O)O)cc2)cc1OC(C)C` [Compound 131], the melting point was 67.8 to 69.1 °C.
Molecule `COc1ccc(N(Cc2cncs2)c2ccc(C(=O)O)cc2)cc1OC` [Compound 138] has a melting point of 86.4 to 88.3 °C.
Molecule `O=C(O)c1ccc(N(Cc2cnco2)c2ccc(OC(F)F)c(OC(F)F)c2)cc1` [Compound 141] has a melting point of 132.4 to 135 °C.
In the case of `O=C(O)c1ccc(N(Cc2cnccn2)c2ccc(OC(F)F)c(OC(F)F)c2)cc1` [Compound 142], the melting point is reported as 158 to 161.1 °C.
`CCOc1cc(N(Cc2cncnc2)c2ccc(C(=O)O)cc2)ccc1OC(F)F` [Compound 143] showed a melting point of 165.3 to 165.9 °C.
Work on `CCOc1cc(N(Cc2cnco2)c2ccc(C(=O)O)cc2)ccc1OC(F)F` [Compound 144] yielded a melting point of 111.1 to 113 °C.
Work on `COc1ccc(N(Cc2cncs2)c2cccc(C(=O)O)c2)cc1OC(F)F` [Compound 149] yielded a melting point of 86.4 to 88.3 °C.
`COc1ccc(N(Cc2cncs2)c2ccc(C(=O)O)cc2)cc1OC(F)F` [Compound 150] showed a melting point of 86.4 to 88.3 °C.
`COc1cc(N(Cc2cncnc2)c2ccc(C(=O)O)cc2)ccc1OC(F)F` [Compound 153] gave a melting point of 191.3 to 191.5 °C.
In the case of `COc1cc(N(Cc2cnccn2)c2ccc(C(=O)O)cc2)ccc1OC(F)F` [Compound 154], the melting point is reported as 157.2 to 157.7 °C.
Work on `CC(C)Oc1cc(N(Cc2cnccn2)c2ccc(C(=O)O)cc2)ccc1OC(F)F` [Compound 155] yielded a melting point of 132.3 to 135.7 °C.
Molecule `CC(C)Oc1cc(N(Cc2cnccn2)c2cccc(C(=O)O)c2)ccc1OC(F)F` [Compound 156] has a melting point of 81.2 to 82 °C.
`O=C(O)c1ccc(N(Cc2cnccn2)c2ccc(OC(F)F)c(OCC3CC3)c2)cc1` [Compound 157] gave a melting point of 81.2 to 82.3 °C.
Molecule `O=C(O)c1cccc(N(Cc2cnccn2)c2ccc(OC(F)F)c(OCC3CC3)c2)c1` [Compound 159] has a melting point of 72.7 to 73.1 °C.
For `CC(C)Oc1cc(N(Cc2cncs2)c2cncc(C(=O)O)c2)ccc1OC(F)F` [Compound 160], the melting point was 121.7 to 123.1 °C.
Molecule `CNS(=O)(=O)c1ccc(N(Cc2cncs2)c2ccc(OC(F)F)c(OC(F)F)c2)cc1` [Compound 165] has a melting point of 105.5 to 106.4 °C.
For `O=C(O)c1ccc(N(Cc2cncnc2)c2ccc(OC(F)F)c(OCC3CC3)c2)cc1` [Compound 168], the melting point was 265.1 to 266.6 °C.
`CCOc1ccc(N(Cc2cncs2)c2ccc(C(=O)O)cc2)cc1OCC` [Compound 170] gave a melting point of 77 to 79 °C.
For `COc1ccc(N(Cc2cnco2)c2ccc(C(=O)O)cc2)cc1OC(C)C` [Compound 180], the melting point was 60.3 to 61 °C.
`CCOc1cc(N(Cc2cnco2)c2ccc(C(=O)O)cc2)ccc1OC` [Compound 181] gave a melting point of 175.6 to 176.9 °C.
`COc1ccc(N(Cc2cnco2)c2ccc(C(=O)O)cc2)cc1OCC1CC1` [Compound 183] gave a melting point of 160 to 161.7 °C.
For `COc1ccc(N(Cc2cnco2)c2ccc(C(=O)O)cc2)cc1OC1CCC1` [Compound 184], the melting point was 148 to 150.3 °C.
Work on `COc1cc(N(Cc2cncnc2)c2ccc(C(=O)O)cc2)ccc1OCC(F)(F)F` [Compound 186] yielded a melting point of 208.7 to 209.9 °C.
With `COc1ccc(N(Cc2cncnc2)c2ccc(C(=O)O)cc2)cc1OC(C)C` [Compound 192] the melting point was 181.7 to 183.6 °C.
Molecule `COc1ccc(N(Cc2cncnc2)c2ccc(C(=O)O)cc2)cc1OC1CCC1` [Compound 193] has a melting point of 174 to 177.9 °C.
`COc1ccc(N(Cc2cncnc2)c2ccc(C(=O)O)cc2)cc1OCC1CC1` [Compound 195] gave a melting point of 185.6 to 187.2 °C.
`CCOc1cc(N(Cc2cncnc2)c2ccc(C(=O)O)cc2)ccc1OC` [Compound 196] showed a melting point of 190.9 to 191.9 °C.
Molecule `O=C(O)c1cccc(N(Cc2cnco2)c2ccc(OC(F)F)c(OCC3CC3)c2)c1` [Compound 198] has a melting point of 60.2 to 61 °C.
Work on `CCOc1cc(N(Cc2cnco2)c2cccc(C(=O)O)c2)ccc1OC` [Compound 200] yielded a melting point of 158 to 159.8 °C.
Molecule `O=C(O)c1ccc(N(Cc2cncnc2)c2ccc(OC(F)F)c(OC3CCC3)c2)cc1` [Compound 205] has a melting point of 135.1 to 136.3 °C.
For `O=C(O)c1ccc(N(Cc2cncnc2)c2ccc(OC(F)F)c(OCc3ccccc3)c2)cc1` [Compound 214], the melting point was 157.4 to 158.2 °C.
`CCOc1cc(N(Cc2cnc(C)s2)c2ccc(C(=O)O)cc2)ccc1OC(F)F` [Compound 225] showed a melting point of 73.1 to 74.1 °C.
For `COc1ccc(N(Cc2cccnc2)c2cccc(C3NC(=O)NC3=O)c2)cc1OC1CCCC1` (centres unmarked) [Compound 239], the melting point was 99.7 to 105 °C.
`COc1ccc(N(Cc2cccnc2)c2ccc(C3NC(=O)NC3=O)cc2)cc1OC1CCCC1` (centres unmarked) [Compound 245] showed a melting point of 108 to 112.5 °C.
`O=C1NC(=O)C(c2cccc(N(Cc3cncs3)c3ccc(OC(F)F)c(OC(F)F)c3)c2)N1` (centres unmarked) [Compound 257] gave a melting point of 63.1 to 82.3 °C.
`CCOc1cc(-c2ncc(CN(c3ccc(C(=O)O)cc3)c3ccc(OC(F)F)c(OCC)c3)o2)ccc1OC(F)F` [Compound 273] showed a melting point of 178.4 to 178.9 °C.
In the case of `CCOc1cc(N(Cc2cccnc2)c2ccc(C(=O)O)cc2)ccc1OC(F)F` [Example 11, 4-[(4-Difluoromethoxy-3-ethoxy-phenyl)-pyridin-3-ylmethyl-amino]-benzoic acid], the melting point is reported as 177.6 to 178.9 °C.
Molecule `COc1cc(N(Cc2cccnc2)c2ccc(C(=O)O)cc2)ccc1OC(F)F` [Example 14, 4-[(4-Difluoromethoxy-3-methoxy-phenyl)-pyridin-3-ylmethyl-amino]-benzoic acid] has a melting point of 183.7 to 184.9 °C.

From patent US20100029689A1, “PHOSPHODIESTERASE 4 INHIBITORS” (MEMORY PHARMACEUTICALS CORPORATION, priority 2008, published 2010)
